From the supplement of paper PMC10307832

Columns and labels:
Experiment in all cases: relative viability (nuclei count vs DMSO), 5 days (fraction); higher = more cells survive
Shikonin + Trametinib = compound: CC(C)=CC[C@@H](O)C1=CC(=O)c2c(O)ccc(O)c2C1=O [Shikonin] + CC(=O)Nc1cccc(-n2c(=O)n(C3CC3)c(=O)c3c(Nc4ccc(I)cc4F)n(C)c(=O)c(C)c32)c1 [Trametinib] (partner 0.02 µM)
Method in brief: (§1)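 Relative viability equals treated-well nuclei counts divided by vehicle-well nuclei counts. Counts came from 4× images of lung cancer cell lines grown in 1536-well plates for 5 days after pin-tool dosing on the day after seeding. Dosing used one drug alone or a fixed anchor-drug dose plus five library-drug doses (not always all listed) in √10 steps, and values are medians of duplicate plates.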

Shikonin + Phenformin = compound: CC(C)=CC[C@@H](O)C1=CC(=O)c2c(O)ccc(O)c2C1=O [Shikonin] + N=C(N)NC(=N)NCCc1ccccc1 [Phenformin] (partner 250 µM)
Method in brief: as §1

[1] = compound: CC(C)N(CCCNC(=O)Nc1ccc(C(C)(C)C)cc1)C[C@H]1O[C@@H](n2ccc3c(N)ncnc32)[C@H](O)[C@@H]1O + CC(C)C[C@H](NC(=O)[C@H](Cc1ccccc1)NC(=O)c1cnccn1)B(O)O [Bortezomib] (partner 0.002 µM)
Method in brief: as §1

[2] = compound: CC(C)N(CCCNC(=O)Nc1ccc(C(C)(C)C)cc1)C[C@H]1O[C@@H](n2ccc3c(N)ncnc32)[C@H](O)[C@@H]1O + O=C(CCCCCCC(=O)Nc1ccccc1)NO [Vorinostat] (partner 1 µM)
Method in brief: as §1

Cell Line | relative viability (Shikonin + Trametinib; first compound 0.01 µM) | relative viability (Shikonin + Trametinib; first compound 0.1 µM) | relative viability (Shikonin + Trametinib; first compound 0.3162 µM) | relative viability (Shikonin + Trametinib; first compound 1 µM) | relative viability (Shikonin + Phenformin; first compound 0.01 µM) | relative viability (Shikonin + Phenformin; first compound 0.1 µM) | relative viability (Shikonin + Phenformin; first compound 0.3162 µM) | relative viability (Shikonin + Phenformin; first compound 1 µM) | relative viability ([1]; first compound 0.08 µM) | relative viability ([1]; first compound 0.8 µM) | relative viability ([1]; first compound 2.53 µM) | relative viability ([1]; first compound 8 µM) | relative viability ([2]; first compound 0.08 µM) | relative viability ([2]; first compound 0.8 µM) | relative viability ([2]; first compound 2.53 µM) | relative viability ([2]; first compound 8 µM) | relative viability ([1]; first compound 0.253 µM) | relative viability ([2]; first compound 0.253 µM)
NCI-H23 | 0.356 | 0.395 | 0.472 | 0.42 | 0.864 | 0.812 | 0.849 | 0.717 | 0.837 | 0.523 | 0.94 | 1.17 | 0.582 | 0.557 | 0.639 | 0.549 | – | –
NCI-H322M | 0.498 | 0.459 | 0.513 | 0.564 | 0.871 | 0.856 | 0.754 | 0.836 | 1.11 | 1.12 | 1.39 | 1.38 | 0.891 | 0.805 | 0.842 | 0.912 | 1.13 | 0.899
NCI-H441 | 0.468 | 0.487 | 0.528 | 0.451 | 0.941 | 1.03 | 0.761 | 0.815 | – | 0.144 | 0.875 | 0.819 | 0.811 | – | 0.784 | 0.654 | 0.488 | 0.641
NCI-H460 | 0.159 | 0.164 | 0.131 | 0.135 | 0.515 | 0.64 | 0.51 | 0.474 | 0.967 | 1.2 | 1.15 | 1.13 | 0.719 | 0.746 | 0.701 | 0.734 | 1.3 | 0.727
NCI-H520 | 0.685 | 0.631 | 0.677 | 0.679 | 0.504 | 0.809 | 0.567 | 0.6 | 0.581 | 0.155 | 0.647 | 0.524 | 0.849 | 0.801 | 0.753 | 0.843 | 0.179 | 0.711
NCI-H596 | 0.94 | 0.827 | 0.841 | 0.839 | 0.798 | 0.858 | 0.893 | 0.897 | 0.997 | 0.746 | 1.05 | 1.2 | 0.601 | 0.39 | 0.674 | 0.714 | 0.843 | 0.427
NCI-H647 | 0.414 | 0.356 | 0.443 | 0.451 | 0.572 | 0.677 | 0.477 | 0.538 | 0.761 | 0.2 | 0.821 | 0.809 | 0.415 | 0.472 | 0.598 | 0.518 | – | 0.549
NCI-H650 | 0.988 | 1.19 | 0.996 | 0.982 | 0.462 | 0.462 | 0.447 | 0.426 | 0.785 | 0.773 | 0.682 | 0.796 | 0.414 | 0.459 | 0.426 | 0.401 | 0.598 | 0.444
NCI-H661 | 0.559 | 0.536 | 0.505 | 0.576 | 0.251 | 0.292 | 0.275 | 0.291 | 0.63 | 0.625 | 0.747 | 0.719 | 0.77 | 0.812 | 0.809 | 0.785 | 0.753 | 0.834
NCI-H727 | 0.351 | 0.375 | 0.389 | 0.409 | 0.523 | 0.604 | 0.579 | 0.543 | 0.829 | 0.583 | 0.935 | 0.734 | 1.12 | 1.16 | 1.04 | 1.17 | 0.696 | 1.23
NCI-H838 | 0.619 | 0.505 | 0.551 | 0.564 | 0.547 | 0.722 | 0.608 | 0.578 | 0.755 | 0.626 | 0.672 | 0.788 | 0.683 | 0.784 | 0.755 | 0.672 | 0.372 | 0.744
NCI-H1355 | 0.405 | 0.42 | 0.424 | 0.395 | 0.438 | 0.483 | 0.46 | 0.476 | 1.15 | – | 1.22 | 1.08 | 0.592 | 0.529 | 0.642 | 0.575 | 1.2 | 0.632
NCI-H1437 | 0.539 | 0.433 | 0.458 | 0.504 | 0.299 | 0.338 | 0.337 | 0.321 | 0.526 | 0.309 | 0.423 | 0.536 | 0.8 | 0.759 | 0.791 | 0.759 | 0.417 | 0.799
NCI-H1650 | 0.582 | 0.492 | 0.523 | 0.491 | 0.443 | 0.488 | 0.335 | 0.254 | 0.185 | – | 0.205 | 0.201 | 0.451 | 0.485 | 0.474 | 0.444 | 0.205 | 0.608
NCI-H1651 | 0.882 | 0.873 | 0.882 | 0.83 | 0.381 | 0.377 | 0.281 | 0.349 | 0.958 | 0.967 | 0.943 | 0.944 | 0.543 | 0.504 | 0.577 | 0.576 | 0.957 | 0.542
NCI-H1666 | 0.896 | 0.855 | 1.02 | 0.772 | 0.558 | 0.605 | 0.552 | 0.548 | 0.802 | 0.613 | 0.83 | 0.697 | 1.1 | 1.02 | 1.01 | 0.934 | 0.775 | 1
NCI-H1734 | 0.664 | 0.771 | 0.747 | 0.732 | 0.414 | 0.432 | 0.34 | 0.425 | 0.701 | 0.355 | 0.973 | 0.847 | 0.773 | 0.677 | 0.783 | 0.756 | 0.921 | 0.611
NCI-H1755 | 0.703 | 0.812 | 0.756 | 0.742 | 0.696 | 0.668 | 0.659 | 0.55 | 0.934 | 0.467 | 0.929 | 0.878 | 0.769 | 0.666 | 0.756 | 0.723 | 0.914 | 0.74
NCI-H1915 | 0.308 | 0.31 | 0.309 | 0.298 | 0.383 | 0.396 | 0.368 | 0.395 | 0.911 | 0.622 | 0.894 | 0.935 | 0.495 | 0.483 | 0.475 | 0.485 | 0.972 | 0.582
NCI-H1975 | 0.275 | 0.367 | 0.33 | 0.321 | 0.417 | 0.431 | 0.413 | 0.408 | 0.34 | 0.149 | 0.36 | 0.341 | 0.748 | 0.701 | 0.658 | 0.709 | 0.352 | 0.687
NCI-H1993 | 0.526 | 0.516 | 0.563 | 0.568 | 0.504 | 0.579 | 0.555 | 0.499 | 0.96 | 0.915 | 1.13 | 1.16 | 0.663 | 0.661 | 0.748 | 0.818 | 0.912 | –
NCI-H2009 | 0.256 | 0.292 | 0.245 | 0.254 | 0.475 | 0.568 | 0.433 | 0.181 | 1.05 | 0.883 | 1.08 | 0.955 | 0.728 | 0.703 | 0.744 | 0.675 | 0.817 | 0.73
NCI-H2023 | 0.546 | 0.534 | 0.64 | 0.56 | 0.352 | 0.386 | 0.452 | 0.341 | 0.89 | 0.872 | 1.09 | 0.821 | 0.605 | 0.576 | 0.584 | 0.45 | 0.451 | 0.608
NCI-H2085 | 0.601 | 0.502 | 0.574 | 0.513 | 0.738 | 0.847 | 0.785 | 0.637 | 1.02 | 0.749 | 1.09 | 0.907 | 0.769 | 0.813 | 0.887 | 0.744 | 0.925 | 0.667
NCI-H2087 | 0.198 | 0.194 | 0.189 | 0.18 | 0.458 | 0.484 | 0.447 | 0.463 | 0.861 | 0.25 | 0.99 | 0.857 | 0.681 | 0.929 | 0.668 | 0.512 | 0.841 | 0.732
NCI-H2126 | 0.549 | 0.553 | 0.607 | 0.571 | 0.518 | 0.571 | 0.565 | 0.513 | 1.03 | 1.14 | 1.08 | 1.05 | 0.672 | 0.825 | 0.721 | 0.711 | 1.12 | 0.702
NCI-H2228 | 0.342 | 0.441 | 0.536 | 0.494 | 0.31 | 0.287 | 0.283 | 0.289 | 0.788 | 0.377 | 0.825 | 1.19 | 0.593 | 0.543 | 0.556 | 0.702 | – | 0.703
NCI-H2347 | 0.272 | 0.273 | 0.279 | 0.249 | 0.488 | 0.384 | 0.31 | 0.313 | 1.14 | 0.534 | 0.924 | 1 | 0.54 | 0.458 | 0.608 | 0.546 | 0.871 | 0.537
NCI-H2405 | 0.622 | 0.725 | 0.653 | 0.573 | 0.391 | 0.398 | 0.427 | 0.396 | 0.986 | 0.918 | 0.994 | 0.819 | 1.06 | 0.928 | 1.07 | 0.92 | 0.989 | 0.969
NCI-H3122 | 0.183 | 0.292 | 0.211 | 0.266 | 0.391 | 0.417 | 0.391 | 0.399 | 1.02 | 1.04 | 1.03 | 0.978 | 0.957 | 0.894 | 0.991 | 0.921 | 0.994 | 1.2
